In patent EP4786487A1, “PEPTIDE” (Peptidream Inc, priority 2023, dated 2025):
Where two headings read alike, the source gives them in different places. Starred links: 1 amine or outer side, 2 acyl side, 3 side chain; linkers in the order of their positions; H or OH if unused. Positions of bridges follow the written chain, without caps; N, C: chain ends. Non-standard residues stand in square brackets, D forms with d. Residues, ends and D or L forms follow the SMILES beside them. Groups on a side chain read outwards from the residue. *: point of attachment. Phe(3-OCH2COOH) = N[C@@H](Cc1cccc(OCC(=O)O)c1)C(=O)O; Piperidine(4-CH2CH2CONH2) = NC(=O)CCC1CCN(*)CC1; Phe(4-COOH) = N[C@@H](Cc1ccc(C(=O)O)cc1)C(=O)O; Piperazinyl(4-CH2COOH) = O=C(O)CN1CCN(*)CC1; Piperidinyl(4-CH2COOH) = O=C(O)CC1CCN(*)CC1; Gly(N(CH2)3COOH) = O=C(O)CCCNCC(=O)O; X1 = CCCCCCC[C@H](N[*:1])C(=O)[*:2]; NMeF = CN[C@@H](Cc1ccccc1)C(=O)O; dAad = N[C@H](CCCC(=O)O)C(=O)O; dNMeC = CN[C@H](CS)C(=O)O; NMeA = CN[C@@H](C)C(=O)O; X9 = NC(=O)CC1CCN(*)CC1; CO = O=C([*:1])[*:2]; Inp = O=C(O)C1CCNCC1; Sar = CNCC(=O)O

Tests used:
[1] = biological target: T1, Myostatin (Homo sapiens, UniProt O14793); test: HepG2 reporter gene assay, Evaluation Procedure (2): 2-concentrations assay, myostatin inhibition; type: cell-based; settings: Table 7-3/7-4, myostatin 10 ng/mL, HepG2, read-out: inhibition rate (myostatin inhibition assay); for inhibition at 0.1 µM: peptide at the higher of the 2 concentrations; for inhibition at 0.03 µM: peptide at the lower of the 2 concentrations
T1 construct: active myostatin (also called mature myostatin) is a homodimer consisting of two C-terminal growth factor domains; purchased R&D systems 788-G8/CF
T1 sequence (O14793 267-375): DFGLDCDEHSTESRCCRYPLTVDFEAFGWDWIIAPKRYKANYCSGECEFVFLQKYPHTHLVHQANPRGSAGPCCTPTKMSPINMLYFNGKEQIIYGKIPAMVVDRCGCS
How it was run: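 Myostatin inhibition was measured in a luciferase reporter assay using HepG2 cells transfected with a pGL3 vector containing 12 CAGA repeats upstream of luciferase. After 20 to 24 hours with 10 ng/mL myostatin, cells received One-Glo:PBS (1:1) at 100 µL/well, were shaken for 5 min, and 20 µL/well was moved to 384-well plates and read on an Envision 2104.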

[2] = biological target: T2, GDF-11 (Homo sapiens, UniProt O95390); test: HepG2 reporter gene assay, Evaluation Procedure (2): 2-concentrations assay, GDF-11 inhibition; type: cell-based; settings: read-out: inhibition rate (GDF-11 inhibition assay)
T2 construct: purchased R&D systems 1958-GD-G8/CF
T2 sequence (O95390 299-407): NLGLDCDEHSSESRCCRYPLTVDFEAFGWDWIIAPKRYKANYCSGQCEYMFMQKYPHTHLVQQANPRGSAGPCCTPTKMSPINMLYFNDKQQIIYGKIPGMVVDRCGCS
How it was run: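 HepG2 cells carrying the transfected pGL3(CAGA)12-luc reporter, a pGL3 vector with luciferase placed downstream of 12 CAGA repeats, were stimulated with GDF-11 at a final 10 ng/mL together with test peptide. Blank wells received no GDF-11 and no peptide. Plates were incubated 20 to 24 hours at 37°C with 5% CO2. Luminescence from One-Glo substrate was read to calculate percent inhibition.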

[3] = HepG2, first GDF-11 column of Table 7-3/7-4, GDF-11 10 ng/mL, peptide at the lower of the 2 concentrations
[4] = HepG2, second GDF-11 column of Table 7-3/7-4, GDF-11 10 ng/mL, peptide at the higher of the 2 concentrations

inhibition at 0.1 µM [1]	inhibition at 0.03 µM [1]	inhibition [2, 3]	inhibition [2, 4]	SMILES
100%	98%	0%	0%	CCCCCCC[C@@H]1NC(=O)[C@H](Cc2ccccc2)N(C)C(=O)[C@H](CCCNC(=N)N)NC(=O)[C@H](Cc2ccc(C(=O)O)cc2)NC(=O)[C@H](Cc2cccc(OCC(=O)O)c2)NC(=O)CN(C)C(=O)[C@H]([C@@H](C)CC)NC(=O)[C@H](Cc2ccccc2)N(C)C(=O)[C@H](Cc2ccc(O)cc2)NC(=O)[C@H](Cc2c[nH]c3ccccc23)NC(=O)[C@H](C)NC(=O)[C@H](C)NC(=O)CSC[C@H](C(=O)N[C@@H](CCCCNC(=O)N2CCN(CC(=O)O)CC2)C(=O)O)NC(=O)[C@H](Cc2ccccc2)N(C)C(=O)[C@H](C)N(C)C1=O [Myostatin_99_v427] ({CH2CO}-AAWY[NMeF]I[Sar][Phe(3-OCH2COOH)][Phe(4-COOH)]R[NMeF][X1][NMeA][NMeF][dC]K([CO-Piperazinyl(4-CH2COOH)])-OH; thioether N-15)
99%	96%	0%	0%	CCCCCCC[C@@H]1NC(=O)[C@H](Cc2ccccc2)N(C)C(=O)[C@H](CCCNC(=N)N)NC(=O)[C@H](Cc2ccc(C(=O)O)cc2)NC(=O)[C@H](Cc2cccc(OCC(=O)O)c2)NC(=O)[C@H](C)N(C)C(=O)[C@H]([C@@H](C)CC)NC(=O)[C@H](Cc2ccccc2)N(C)C(=O)[C@H](Cc2ccc(O)cc2)NC(=O)[C@H](Cc2c[nH]c3ccccc23)NC(=O)[C@H](C)NC(=O)CN(CCCC(=O)O)C(=O)CSC[C@H](C(=O)N[C@@H](CCCCNC(=O)N2CCN(CC(=O)O)CC2)C(=O)O)NC(=O)[C@H](Cc2ccccc2)N(C)C(=O)[C@H](C)N(C)C1=O [Myostatin_99_v428] ({CH2CO}-[Gly(N(CH2)3COOH)]AWY[NMeF]I[NMeA][Phe(3-OCH2COOH)][Phe(4-COOH)]R[NMeF][X1][NMeA][NMeF][dC]K([CO-Piperazinyl(4-CH2COOH)])-OH; thioether N-15)
100%	100%	0%	0%	CCCCCCC[C@@H]1NC(=O)[C@H](Cc2ccccc2)N(C)C(=O)[C@H](CCCNC(=N)N)NC(=O)[C@H](Cc2ccc(C(=O)O)cc2)NC(=O)[C@H](Cc2cccc(OCC(=O)O)c2)NC(=O)[C@H](C)N(C)C(=O)[C@H]([C@@H](C)CC)NC(=O)[C@H](Cc2ccccc2)N(C)C(=O)[C@H](Cc2ccc(O)cc2)NC(=O)[C@H](Cc2c[nH]c3ccccc23)NC(=O)[C@H](C)NC(=O)CN(CCCC(=O)O)C(=O)CSC[C@H](C(=O)N2CCN(CC(=O)O)CC2)NC(=O)[C@H](Cc2ccccc2)N(C)C(=O)[C@H](C)N(C)C1=O [Myostatin_99_v429] ({CH2CO}-[Gly(N(CH2)3COOH)]AWY[NMeF]I[NMeA][Phe(3-OCH2COOH)][Phe(4-COOH)]R[NMeF][X1][NMeA][NMeF][dC]-{Piperazinyl(4-CH2COOH)}; thioether N-15)
100%	100%	0%	0%	CCCCCCC[C@@H]1NC(=O)[C@H](Cc2ccccc2)N(C)C(=O)[C@H](CCCNC(=N)N)NC(=O)[C@H](Cc2ccc(C(=O)O)cc2)NC(=O)[C@H](Cc2cccc(OCC(=O)O)c2)NC(=O)[C@H](C)N(C)C(=O)[C@H]([C@@H](C)CC)NC(=O)[C@H](Cc2ccccc2)N(C)C(=O)[C@H](Cc2ccc(O)cc2)NC(=O)[C@H](Cc2c[nH]c3ccccc23)NC(=O)[C@H](C)NC(=O)CN(CCCC(=O)O)C(=O)CSC[C@H](C(=O)N2CCC(CC(=O)O)CC2)NC(=O)[C@H](Cc2ccccc2)N(C)C(=O)[C@H](C)N(C)C1=O [Myostatin_99_v430] ({CH2CO}-[Gly(N(CH2)3COOH)]AWY[NMeF]I[NMeA][Phe(3-OCH2COOH)][Phe(4-COOH)]R[NMeF][X1][NMeA][NMeF][dC]-{Piperidinyl(4-CH2COOH)}; thioether N-15)
100%	100%	0%	0%	CCCCCCC[C@@H]1NC(=O)[C@H](Cc2ccccc2)N(C)C(=O)[C@H](CCCNC(=N)N)NC(=O)[C@H](Cc2ccc(C(=O)O)cc2)NC(=O)[C@H](Cc2cccc(OCC(=O)O)c2)NC(=O)[C@H](C)N(C)C(=O)[C@H]([C@@H](C)CC)NC(=O)[C@H](Cc2ccccc2)N(C)C(=O)[C@H](Cc2ccc(O)cc2)NC(=O)[C@H](Cc2c[nH]c3ccccc23)NC(=O)[C@H](C)NC(=O)CN(CCCC(=O)O)C(=O)CSC[C@H](C(=O)N2CCC(CCC(N)=O)CC2)NC(=O)[C@H](Cc2ccccc2)N(C)C(=O)[C@H](C)N(C)C1=O [Myostatin_99_v431] ({CH2CO}-[Gly(N(CH2)3COOH)]AWY[NMeF]I[NMeA][Phe(3-OCH2COOH)][Phe(4-COOH)]R[NMeF][X1][NMeA][NMeF][dC]-{Piperidine(4-CH2CH2CONH2)}; thioether N-15)
100%	100%	0%	0%	CCCCCCC[C@@H]1NC(=O)[C@H](Cc2ccccc2)N(C)C(=O)[C@H](CCCNC(=N)N)NC(=O)[C@H](Cc2ccc(C(=O)O)cc2)NC(=O)[C@H](Cc2cccc(OCC(=O)O)c2)NC(=O)[C@H](C)N(C)C(=O)[C@H]([C@@H](C)CC)NC(=O)[C@H](Cc2ccccc2)N(C)C(=O)[C@H](Cc2ccc(O)cc2)NC(=O)[C@H](Cc2c[nH]c3ccccc23)NC(=O)[C@H](C)NC(=O)CN(CCCC(=O)O)C(=O)CSC[C@H](C(=O)N2CCC(CC(N)=O)CC2)NC(=O)[C@H](Cc2ccccc2)N(C)C(=O)[C@H](C)N(C)C1=O [Myostatin_99_v432] ({CH2CO}-[Gly(N(CH2)3COOH)]AWY[NMeF]I[NMeA][Phe(3-OCH2COOH)][Phe(4-COOH)]R[NMeF][X1][NMeA][NMeF][dC]-X9; thioether N-15)
100%	100%	0%	0%	CCCCCCC[C@@H]1NC(=O)[C@H](Cc2ccccc2)N(C)C(=O)[C@H](CCCNC(=N)N)NC(=O)[C@H](Cc2ccc(C(=O)O)cc2)NC(=O)[C@H](Cc2cccc(OCC(=O)O)c2)NC(=O)[C@H](C)N(C)C(=O)[C@H]([C@@H](C)CC)NC(=O)[C@H](Cc2ccccc2)N(C)C(=O)[C@H](Cc2ccc(O)cc2)NC(=O)[C@H](Cc2c[nH]c3ccccc23)NC(=O)[C@H](C)NC(=O)CN(CCCC(=O)O)C(=O)CSC[C@H](C(=O)N2CCC(C(N)=O)CC2)NC(=O)[C@H](Cc2ccccc2)N(C)C(=O)[C@H](C)N(C)C1=O [Myostatin_99_v433] ({CH2CO}-[Gly(N(CH2)3COOH)]AWY[NMeF]I[NMeA][Phe(3-OCH2COOH)][Phe(4-COOH)]R[NMeF][X1][NMeA][NMeF][dC][Inp]-NH2; thioether N-15)
100%	98%	0%	0%	CCCCCCC[C@@H]1NC(=O)[C@H](Cc2ccccc2)N(C)C(=O)[C@H](CCCNC(=N)N)NC(=O)[C@H](Cc2ccc(C(=O)O)cc2)NC(=O)[C@H](Cc2cccc(OCC(=O)O)c2)NC(=O)[C@H](C)N(C)C(=O)[C@H]([C@@H](C)CC)NC(=O)[C@H](Cc2ccccc2)N(C)C(=O)[C@H](Cc2ccc(O)cc2)NC(=O)[C@H](Cc2c[nH]c3ccccc23)NC(=O)[C@H](C)NC(=O)CN(CCCC(=O)O)C(=O)CCC[C@H](C(=O)O)NC(=O)[C@H](Cc2ccccc2)N(C)C(=O)[C@H](C)N(C)C1=O [Myostatin_99_v434] ([Gly(N(CH2)3COOH)]AWY[NMeF]I[NMeA][Phe(3-OCH2COOH)][Phe(4-COOH)]R[NMeF][X1][NMeA][NMeF][dAad]-OH; lactam N-15)
100%	100%	2%	36%	CCCCCCC[C@@H]1NC(=O)[C@H](Cc2ccccc2)N(C)C(=O)[C@H](CCCNC(=N)N)NC(=O)[C@H](Cc2ccc(C(=O)O)cc2)NC(=O)[C@H](Cc2cccc(OCC(=O)O)c2)NC(=O)[C@H](C)N(C)C(=O)[C@H]([C@@H](C)CC)NC(=O)[C@H](Cc2ccccc2)N(C)C(=O)[C@H](Cc2ccc(O)cc2)NC(=O)[C@H](Cc2c[nH]c3ccccc23)NC(=O)[C@H](C)NC(=O)CN(CCCC(=O)O)C(=O)CSC[C@H](C(N)=O)N(C)C(=O)[C@H](Cc2ccccc2)N(C)C(=O)[C@H](C)N(C)C1=O [Myostatin_99_v439] ({CH2CO}-[Gly(N(CH2)3COOH)]AWY[NMeF]I[NMeA][Phe(3-OCH2COOH)][Phe(4-COOH)]R[NMeF][X1][NMeA][NMeF][dNMeC]-NH2; thioether N-15)
